Measurements from US20150045291A1, “LIPOPEPTIDE CONJUGATES COMPRISING SPHINGOLIPID AND HIV GP41 DERIVED PEPTIDES” (priority 2012, published 2015).
Where two headings read alike, the source gives them in different places. Starred links: 1 amine or outer side, 2 acyl side, 3 side chain; linkers in the order of their positions; H or OH if unused. Residues, ends and D or L forms follow the SMILES beside them. *: point of attachment. Sphinganine = CCCCCCCCCCCCCCC[C@@H](O)[C@H](CO)N*; Palmitoyl = CCCCCCCCCCCCCCCC(=O)*; CO = O=C([*:1])[*:2]

Assays:
[1] = Peptide binding to LUV, PC:Chol (9:1); conditions: Ka, NBD-labeled compound titrated with LUV; mean±s.d. of the fitting curve, n=3
Experimental: (§1) Lipid vesicle preparation. Large unilamellar vesicles (LUV) were prepared from egg phosphatidylcholine (PC), cholesterol (Chol) and egg yolk sphingomyelin (SM) (Sigma Chemical Co., Israel). A dried film of lipids containing a total of 2 mg of PC:SM:Chol (1:1:1) or 2 mg of PC:Chol (9:1) was suspended in PBS and vortexed for 1.5 min. The lipid suspension underwent five cycles of freezing-thawing and then extrusion through polycarbonate membranes with 1 μm and 0.1 μm diameter pores for 25 times.
(§2) Peptide binding to LUV. The degree of peptide association with lipid vesicles was measured by adding lipid vesicles to 0.1 μM fluorescently NBD-labeled peptides at room temperature. The fluorescence intensity was measured as a function of the lipid:peptide molar ratio, with excitation set at 467 nm (10-nm slit) and emission set at 530 nm (10-nm slit). To determine the extent of the lipid's contribution to any given signal, the readings after the addition of lipid vesicles were subtracted as background from the recorded fluorescence intensity. The affinity constants were then determined by steady state affinity model using non-linear least-squares (NLLSQ). The NLLSQ fitting was done using the following equation: […]
(§3) where X is the lipid concentration, Y(x) is the fluorescence emission, Fmax is the maximal difference in the emission of NBD-labeled peptide before and after the addition of lipids (it represents the maximum peptide bound to lipid), and Ka is the affinity constant.
(§4) Compound association with lipid vesicles was estimated by NBD-labeled compound titration with large unilamellar vesicles. The mole ratio between phosphatidylcholine (PC), sphingomyelin (SM), and cholesterol (Chol) is presented for each vesicle. The membrane-binding constants (Ka) were calculated from equation 2 in the Methods. Results represent the mean±s.d. of the fitting curve, n=3.

[2] = test system: fully infectious HIV-1 HXB2
[3] = Secondary structure determination by circular dichroism; type: physicochemical; conditions: percentage of α-helical structure, CD, 10 μM peptide in HEPES buffer 5 mM pH 7.4, 25° C.
Experimental: Secondary structure determination. Circular Dichroism (CD) measurements were performed by using an AppliedPhoto physics spectropolarimeter. The spectra were scanned using a thermostatic quartz cuvette with a path length of 1 mm. Wavelength scans were performed at 25° C.; the average recording time was 15 sec, in 1-nm steps, in the wavelength range of 190-260 nm. Each peptide concentration was 10 μM in HEPES buffer (5 mM, pH 7.4).
Helicity (%): The percentage of α-helical structure was determined as described in the section of Materials and Methods.

[4] = Hydrophobicity by RP-HPLC; type: physicochemical; conditions: RP-HPLC retention time, analytical C2 column, CH3CN/H2O gradient
Experimental: Peptide synthesis, lipid moiety conjugation, and fluorescent labeling. Peptides were synthesized on Rink Amide MBHA resin by using the F-moc strategy. Several peptides contain a lysine residue at their C-terminus with an MTT side-chain protecting group (Nova-biochem AG, Switzerland) that requires a special deprotection step under mild acidic conditions (2×1 min of 5% trifluoroacetic acid (TFA) in dichloromethane (DCM) and 30 min of 1% TFA in DCM). This enables the conjugation of a lipid moiety or a fluorescent probe to the C-terminus. The chemical synthesis schemes of the following compounds 1-5 are described in FIG. 6. Conjugation of hexadecanoic (palmitic) acid (C16) or α-Tocopherol succinate (Sigma Chemical Co., Israel) to the N-terminus of selected peptides (compound 2 and compound 4, respectively) was performed using standard F-moc chemistry. Conjugation of cholesterol to the N-terminus of a peptide (compound 3) was performed by adding 10 equivalents of cholesteryl chloroformate (Alfa Aesar, USA) dissolved in DCM, together with 3 equivalents of triethyl amine to the peptides' resin. Conjugation of D-erythro-Dihydrosphingosine (D-erythro sphinganine), (Matreya, LCC, USA) to the N- or C-terminus of a peptide (compound 1) was performed as followed: first, 10 equivalents of N,N′-Disuccinimidyl carbonate (DSC) (Chem-Impex Internatinal, USA) and 20 equivalents of N,N-Diisopropylethylamine (DIEA) were added to the resin for 2 hours in dimethylformamide (DMF). Then, 2 equivalents of sphinganine and 2 equivalents of DIEA were added for overnight incubation in DMF anhydrous. The conjugation of D-erythro-Sphingosine (Matreya, LCC, USA) to the peptides (compound 5) was performed as described for compound 1. Addition of NBD-F, fluoride (4-fluoro-7-nitrobenzofurazan) (NBD) fluorescent probe (Biotium, USA) to the N- or C-terminus of selected peptides was performed in DMF for 1 hour. All peptides were cleaved from the resin by a TFA:DDW:TES (93.1:4.9:2 (v/v)) mixture, and purified by reverse-phase high-performance liquid chromatography (RP-HPLC) to >95% homogeneity. The molecular weight of the peptides was confirmed by platform LCA electrospray mass spectrometry. For hydrophobicity tests the peptides were eluted with a flow rate of 0.6 ml/min using a two-step linear gradient from CH3CN/H2O 20:80 v/v to CH3CN/H2O 95:5 v/v in 30 min and from CH3CN/H2O 95:5 v/v to CH3CN/H2O 95:5 in 10 min v/v on an analytical C2 column (7 μm particle size, pore size 100 Å) from Nucleosil.
Hydrophobicity (min): Hydrophobicity was analyzed by RP-HPLC. The retention time of each compound is presented.

[5] = Peptide binding to LUV, PC:SM:Chol (1:1:1); conditions: Ka, NBD-labeled compound titrated with LUV; mean±s.d. of the fitting curve, n=3
Experimental: as §1, §2, §3, §4

[6] = test system: pseudotyped virus with AD8 ENV (CCR5 tropic)
[7] = test system: pseudotyped virus with LAI ENV (CXCR4 tropic)
[8] = test system: Fuzeon-resistant LAI strain with V38E mutation in gp41; experiment: Fuzeon-resistant virus infection; conditions: mutation in the GIV sequence (V38E)
[9] = fully infectious HIV-1 system (Table 2)

Compound	Membrane-binding constant (M^−1), PC:Chol (9:1) [1]	IC50 [2, 9]	IC50 ([2]; read-out: Virus-cell fusion IC50, TZM-bl cells infected with fully contagious HIV, mean±s.d., n=3)	Helicity (%) [3]	Hydrophobicity [4]	Membrane-binding constant (M^−1), PC:SM:Chol (1:1:1) [5]	IC50 [6]	Effect on viral infectivity / fusion (in words) ([2]; at / up to 1 μM)	IC50 ([2]; read-out: IC50 (inhibitory concentration at 50% infectivity), TZM-bl cells, fully contagious HXB2 HIV-1)	Viral infectivity curves, compound added to target cells before the virus vs immediately after ([2]; time of addition)	IC50 [7]	Antiviral activity against V38E mutant (in words) [8]
CCCCCCCCCCCCCCCC(=O)N[C@@H](CC(C)C)C(=O)N[C@@H](CC(C)C)C(=O)N[C@@H](CCC(N)=O)C(=O)N[C@@H](CC(C)C)C(=O)N[C@H](C(=O)N[C@H](C(=O)N[C@@H](Cc1c[nH]c2ccccc12)C(=O)NCC(=O)N[C@H](C(=O)N[C@@H](CCCCN)C(=O)N[C@@H](CCC(N)=O)C(=O)N[C@@H](CC(C)C)C(=O)N[C@@H](CCC(N)=O)C(=O)N[C@@H](C)C(=O)N[C@@H](CCCNC(=N)N)C(=O)N[C@H](C(=O)N[C@@H](CC(C)C)C(N)=O)[C@@H](C)CC)[C@@H](C)CC)C(C)C)[C@@H](C)O [Palmitic acid-N17] (Palmitoyl-LLQLTVWGIKQLQARIL-NH2)	170000 ± 30000 M⁻¹	> 4000 nM	> 4000 nM	<10%	26.7 min	150000 ± 70000 M⁻¹						
CCCCCCCCCCCCCCC[C@@H](O)[C@H](CO)NC(=O)N[C@@H](CC(C)C)C(=O)N[C@@H](CC(C)C)C(=O)N[C@@H](CCC(N)=O)C(=O)N[C@@H](CC(C)C)C(=O)N[C@H](C(=O)N[C@H](C(=O)N[C@@H](Cc1c[nH]c2ccccc12)C(=O)NCC(=O)N[C@H](C(=O)N[C@@H](CCCCN)C(=O)N[C@@H](CCC(N)=O)C(=O)N[C@@H](CC(C)C)C(=O)N[C@@H](CCC(N)=O)C(=O)N[C@@H](C)C(=O)N[C@@H](CCCNC(=N)N)C(=O)N[C@H](C(=O)N[C@@H](CC(C)C)C(N)=O)[C@@H](C)CC)[C@@H](C)CC)C(C)C)[C@@H](C)O [Sphinganine-N17, Sphinganine-LLQLTVWGIKQLQARIL] ({Sphinganine-CO}-LLQLTVWGIKQLQARIL-NH2)	470000 ± 100000 M⁻¹	121 ± 36 nM		<10%	27.2 min	84000 ± 14000 M⁻¹	403 nM	completely blocks fusion	121 nM	no difference	312 nM	preserved its potent antiviral activity
enfuvirtide	64000 ± 14000 M⁻¹					31000 ± 5000 M⁻¹						considerably weakened the antiviral activity
